Experimental data from publication PMC7985445, “Characterization of Plasmodium falciparum Pantothenate Kinase and Identification of Its Inhibitors From Natural Products” (Frontiers in Cellular and Infection Microbiology, 2021).
Values joined by “and” are separate entries in the source; they are usually repeats but may differ in a detail not shown here. Equal entries are not always repeated. Where two headings read alike, the source gives them in different places.

Columns and labels:
[1] = molecular target: T1, PfPanK1 (Plasmodium falciparum, UniProt Q8ILP4); format: biochemical
T1 sequence (Q8ILP4 1-519): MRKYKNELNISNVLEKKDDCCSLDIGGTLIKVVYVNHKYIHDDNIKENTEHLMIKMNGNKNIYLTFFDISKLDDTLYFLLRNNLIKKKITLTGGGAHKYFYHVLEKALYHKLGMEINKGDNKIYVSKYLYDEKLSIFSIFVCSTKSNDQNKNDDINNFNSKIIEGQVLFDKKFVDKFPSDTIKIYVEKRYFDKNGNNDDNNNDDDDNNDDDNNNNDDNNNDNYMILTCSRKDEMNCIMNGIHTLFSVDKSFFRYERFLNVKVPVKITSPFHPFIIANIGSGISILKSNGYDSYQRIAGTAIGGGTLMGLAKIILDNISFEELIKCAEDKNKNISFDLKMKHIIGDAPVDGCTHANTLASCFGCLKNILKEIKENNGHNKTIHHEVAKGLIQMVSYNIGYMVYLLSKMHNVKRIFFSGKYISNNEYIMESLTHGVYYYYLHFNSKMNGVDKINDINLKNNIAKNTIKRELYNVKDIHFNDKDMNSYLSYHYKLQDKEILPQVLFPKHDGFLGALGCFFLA

[2] = molecular target: T1, PfPanK1; assay: Screening of natural compounds for PfPanK inhibitors and IC50 determination (recombinant enzyme, ADP Hunter Plus); format: biochemical
Protocol: We screened 247 compounds from the Kitasato Natural Products Library ([Mori et al., 2015]; [Nurkanto et al., 2018]) against PfPanK recombinant enzyme. Compounds were dissolved in 50% DMSO at a final concentration of 1 mg/ml.

[3] = system: P. falciparum K1 and FCR3 strain; settings: cited from earlier work
[4] = substrate pair pantetheine and ATP
[5] = substrate pair pantetheine and ATP, 120 µM ATP or 100 µM pantetheine, 37°C
[6] = substrate pair pantothenate and ATP
[7] = pantetheine as substrate, 100 μM ATP, pH 8.4, 37°C
[8] = primary screening; compound at 50 µM final concentration (methods: 50 µg/ml); 37°C, 2 h
[9] = metal ion 5 mM, substrate pantetheine, relative to MgCl2, pH 8.4, 37°C
[10] = metal ion 5 mM, substrate pantothenate, relative to MgCl2, pH 8.4, 37°C

Molecule: Nc1ncnc2c1ncn2[C@@H]1O[C@H](COP(=O)(O)OP(=O)(O)OP(=O)(O)O)[C@@H](O)[C@H]1O [ATP]
- K m [1]: 59.3 ± 7.9 µM
- Relative activity (%) Pantothenate ([1]; pH 8.4): 100%
- Relative activity (%) Pantetheine ([1]; phosphoryl donor (NTP) 100 µM, substrate pantetheine, relative to ATP, pH 8.4, 37°C): 100%
- V max [1, 4]: 18.3 ± 3.0 µmol/min/mg
- k cat [1, 4]: 20.55 ± 0.9 s⁻¹
- k cat/K m [1, 4]: 26.6 ± 6.3 min^-1µM^-1
- K m [1, 5]: 43.4 ± 3.3 µM and 43.4 ± 3.4 µM
- V max [1, 6]: 15.9 ± 2.5 µmol/min/mg
- k cat [1, 6]: 16.1 ± 1.72 s⁻¹
- k cat/K m [1, 6]: 16.1 ± 1.0 min^-1µM^-1

Molecule: CC(=O)SCCNC(=O)CCNC(=O)[C@H](O)C(C)(C)COP(=O)(O)OP(=O)(O)OC[C@H]1O[C@@H](n2cnc3c(N)ncnc32)[C@H](O)[C@@H]1OP(=O)(O)O [Acetyl CoA]
- Effect on PfPanK1 activity [1, 7]: did not affect PfPanK1 activity
- IC50 ([1]; pantothenate as substrate): > 1000 µM

Molecule: CC1(C)S[C@@H]2[C@H](NC(=O)[C@H](N)c3ccc(O)cc3)C(=O)N2[C@H]1C(=O)O [Amoxicillin]
- inhibition ([2]; primary screening; 37°C, 2 h): 45.7%

Molecule: CON1C(=O)[C@H]2NC(=O)[C@]13Oc1cc(O)c(Cl)cc1[C@@H]3SS2 [Aspirochlorine]
- inhibition ([2]; 2 h, primary screening; 37°C): 49.7%

Molecule: C/C=C\C=C\[C@@H]1O[C@](O)([C@H](CC)C(=O)NC/C=C/C=C(\C)[C@@H](OC)[C@@H](C)[C@@H]2O[C@H](/C=C/C=C/C=C(\C)C(=O)c3c(O)ccn(C)c3=O)[C@H](O)[C@@H]2O)[C@H](O)[C@H](O)C1(C)C [Aurodox]
- PfPanK1 Inhibition (%) [2, 8]: 52.2%

Molecule: Nc1ccn([C@@H]2O[C@H](COP(=O)(O)OP(=O)(O)OP(=O)(O)O)[C@@H](O)[C@H]2O)c(=O)n1 [CTP]
- Relative activity (%) Pantetheine ([1]; pH 8.4): 11.3 ± 0.6%
- Relative activity (%) Pantothenate ([1]; pH 8.4): 28.1 ± 2.8%

Molecule: [Ca+2].[Cl-].[Cl-] [CaCl2]
- Relative activity (%) Pantetheine [1, 9]: 30.5 ± 1.6%
- Relative activity (%) Pantothenate [1, 10]: 39.9 ± 4.7%

Molecule: Cc1nnc(SCC2=C(C(=O)O)N3C(=O)[C@@H](NC(=O)Cn4cnnn4)[C@H]3SC2)s1 [Cefazolin]
- inhibition ([2]; 2 h, primary screening; 37°C): 44.2%

Molecule: CC(C)(COP(=O)(O)OP(=O)(O)OC[C@H]1O[C@@H](n2cnc3c(N)ncnc32)[C@H](O)[C@@H]1OP(=O)(O)O)[C@@H](O)C(=O)NCCC(=O)NCCS [CoA, Coenzyme A]
- Effect on PfPanK1 activity ([1]; pH 8.4): inhibited
- Effect on PfPanK1 activity [1, 7]: inhibited

Molecule: [Cl-].[Cl-].[Co+2] [CoCl2]
- Relative activity (%) Pantetheine ([1]; pH 8.4, 37°C): 22.3 ± 1.0%
- Relative activity (%) Pantothenate ([1]; pH 8.4, 37°C): 25.8 ± 1.9%

Molecule: [Cl][Cu][Cl] [CuCl2]
- Relative activity (%) Pantetheine [1, 9]: 8.5 ± 1.3%
- Relative activity (%) Pantothenate [1, 10]: 16.4 ± 1.5%

Molecule: CC(=O)Oc1cccc2c(=O)c3c4c(c(=[N+]=[N-])c=3c(=O)c12)C(OC(C)=O)C(C)(OC(C)=O)C(OC(C)=O)C4OC(C)=O (stereo not drawn) [Diacetylkinamycin C]
- inhibition ([2]; primary screening; 37°C, 2 h): 96.1%
- IC50 ([2]; recombinant PfPanK1; mean ± SEM): 36.2 ± 4.7 µM
- IC50 ([3]; FCR3 strain, ref Shimizu el al., 2019, unpublished, read-out: IC50 P. falciparum erythrocytic stages): 1.1 µM
- IC50 ([3]; K1 strain, ref Shimizu el al., 2019, unpublished, read-out: IC50 P. falciparum erythrocytic stages): 2.2 µM
- IC50 ([3]; range over drug-resistant K1 and drug-sensitive FCR3 strain, ref Shimizu et al., 2019, unpublished, read-out: IC50 against P. falciparum): 1.1 to 2.2 µM

Molecule: CN[C@@H]1[C@H](O[C@H]2[C@H](O[C@H]3[C@H](O)[C@@H](O)[C@H](NC(=N)N)[C@@H](O)[C@@H]3NC(=N)N)O[C@@H](C)[C@]2(O)CO)O[C@@H](CO)[C@H](O)[C@H]1O [Dihydrostreptomycin]
- inhibition ([2]; 2 h, primary screening; 37°C): 44.7%

Molecule: CS[C@H]1SC[C@H]2C(=O)N(C)[C@@H](C(C)C)C(=O)OC[C@@H](NC(=O)c3cnc4ccccc4n3)C(=O)N[C@@H](C)C(=O)N(C)[C@@H]1C(=O)N(C)[C@@H](C(C)C)C(=O)OC[C@@H](NC(=O)c1cnc3ccccc3n1)C(=O)N[C@@H](C)C(=O)N2C [Echinomycin]
- inhibition ([2]; 2 h, primary screening; 37°C): 47.1%

Molecule: [Cl][Fe][Cl] [FeCl2]
- Relative activity (%) Pantetheine [1, 9]: 58.3 ± 3.3%
- Relative activity (%) Pantetheine ([1]; metal ion 5 mM, substrate pantetheine, relative to MgCl2, pH 8.4, 37°C, listed as Ferrous cation): approximately 60%
- Relative activity (%) Pantothenate [1, 10]: 104.7 ± 14.9%

Molecule: Nc1nc2c(ncn2[C@@H]2O[C@H](COP(=O)(O)OP(=O)(O)OP(=O)(O)O)[C@@H](O)[C@H]2O)c(=O)[nH]1 [GTP]
- Relative activity (%) Pantetheine ([1]; pH 8.4): 106.5 ± 4.4%
- Relative activity (%) Pantothenate ([1]; pH 8.4): 107.6 ± 8.1%

Molecule: [Cl-].[K+] [KCl]
- Relative activity (%) Pantetheine [1, 9]: 33.6 ± 3.4%
- Relative activity (%) Pantothenate [1, 10]: 29.7 ± 2.3%

Molecule: CO[C@@H]1[C@@H](O[C@@H]2O[C@H](C)[C@@H](O[C@H]3C[C@@](C)(O)[C@@H](OC(=O)CC(C)C)[C@H](C)O3)[C@H](N(C)C)[C@H]2O)[C@@H](CC=O)C[C@@H](C)[C@@H](O)/C=C/C=C/C[C@@H](C)OC(=O)C[C@H]1OC(C)=O [Leucomycin A3]
- inhibition ([2]; 2 h, primary screening; 37°C): 40.1%

Molecule: [Cl-].[Li+] [LiCl2]
- Relative activity (%) Pantetheine [1, 9]: 32.6 ± 4.1%
- Relative activity (%) Pantothenate [1, 10]: 37.9 ± 9.6%

Molecule: CCC[C@@H]1C[C@@H](C(=O)N[C@@H]([C@H]2O[C@H](SC)[C@H](O)[C@@H](O)[C@H]2O)[C@@H](C)O)N(C)C1 [Lincomycin]
- inhibition ([2]; 2 h, primary screening; 37°C): 41.3%

Molecule: NC[C@@H]1O[C@H](O[C@H]2[C@@H](O)[C@H](O[C@@H]3[C@@H](O)[C@H](N)C[C@H](N)[C@H]3O[C@H]3O[C@H](CO)[C@@H](O)C[C@H]3N)O[C@@H]2CO)[C@H](N)[C@@H](O)[C@@H]1O[C@H]1O[C@H](CO)[C@@H](O)[C@H](O)[C@@H]1O [Lividomycin A]
- inhibition ([2]; 2 h, primary screening; 37°C): 44%

Molecule: [Cl-].[Cl-].[Mg+2] [MgCl2]
- Relative activity (%) Pantetheine [1, 9]: 100%
- Relative activity (%) Pantothenate [1, 10]: 100%

Molecule: [Cl][Mn][Cl] [MnCl2]
- Relative activity (%) Pantetheine [1, 9]: 55.3 ± 0.1%
- Relative activity (%) Pantothenate [1, 10]: 41.7 ± 8.4%

Molecule: [Cl-].[Na+] [NaCl]
- Relative activity (%) Pantetheine ([1]; pH 8.4): 33.1 ± 6.2%
- Relative activity (%) Pantothenate ([1]; pH 8.4): 41.4 ± 5.3%

Molecule: [Cl][Ni][Cl] [NiCl2]
- Relative activity (%) Pantetheine [1, 9]: 41.4 ± 3.4%
- Relative activity (%) Pantothenate [1, 10]: 49.0 ± 5.5%

Molecule: CC(C)(CO)[C@@H](O)C(=O)NCCC(=O)NCCS [Pantetheine]
- V max [1, 4]: 19.6 ± 1.2 µmol/min/mg
- k cat [1, 4]: 19.52 ± 0.417 s⁻¹
- k cat/K m [1, 4]: 25.6 ± 0.7 min^-1µM^-1
- K m [1, 5]: 45.7 ± 6.9 µM

Molecule: CC(C)(CO)[C@@H](O)C(=O)NCCC(=O)O [Pantothenate]
- K m [1]: 44.6 ± 5.6 µM
- k cat/K m [1]: 19.1 ± 1.0 min^-1µM^-1
- V max [1, 6]: 14.2 ± 0.71 µmol/min/mg
- k cat [1, 6]: 14.2 ± 1.28 s⁻¹

Molecule: NC[C@H]1O[C@H](O[C@H]2[C@H](O[C@@H]3O[C@H](CO)[C@@H](O)[C@H]3O)[C@@H](O)[C@H](N)C[C@@H]2N)[C@H](N)[C@@H](O)[C@@H]1O [Ribostamycin]
- inhibition ([2]; 2 h, primary screening; 37°C): 46.6%

Molecule: CN[C@@H]1[C@H](O)[C@H](NC)[C@H]2O[C@@]3(O)C(=O)C[C@@H](C)O[C@H]3O[C@@H]2[C@H]1O [Spectinomycin (Actinospectacin), Spectinomycin]
- PfPanK1 Inhibition (%) [2, 8]: 55.0%

Molecule: CN[C@@H]1[C@H](O)[C@H](NC)[C@H]2O[C@@]3(O)C(=O)C[C@@H](C)O[C@H]3O[C@@H]2[C@H]1O [Spectinomycin (Trobicin), Spectinomycin]
- inhibition ([2]; 2 h, primary screening; 37°C): 47.8%

Molecule: Cc1cn([C@H]2C[C@H](O)[C@@H](COP(=O)(O)OP(=O)(O)OP(=O)(O)O)O2)c(=O)[nH]c1=O [TTP]
- Relative activity (%) Pantetheine ([1]; pH 8.4): 0.0 ± 0.0%
- Relative activity (%) Pantothenate ([1]; pH 8.4): 13.1 ± 1.0%

Molecule: C=C/C(C)=C/[C@@]1(C)SC(=O)C(C)=C1O [Thiolactomycin]
- inhibition ([2]; primary screening; 37°C, 2 h): 42.4%

Molecule: CC(/C=C/C(O)=C1/C(=O)CNC1=O)=C\[C@@H](C)[C@H]1O[C@@]2(C)O[C@H](C(=O)[C@H]3O[C@]32C)[C@@H]1C [Tirandamycin A]
- PfPanK1 Inhibition (%) [2, 8]: 49.7%

Molecule: CC(/C=C/C(=O)NO)=C\[C@@H](C)C(=O)c1ccc(N(C)C)cc1 [Trichostatin]
- inhibition ([2]; primary screening; 37°C, 2 h): 47.2%

Molecule: O=c1ccn([C@@H]2O[C@H](COP(=O)(O)OP(=O)(O)OP(=O)(O)O)[C@@H](O)[C@H]2O)c(=O)[nH]1 [UTP]
- Relative activity (%) Pantetheine ([1]; pH 8.4): 23.8 ± 2.3%
- Relative activity (%) Pantothenate ([1]; pH 8.4): 64.1 ± 1.0%

Molecule: [Cl-].[Cl-].[Zn+2] [ZnCl2]
- Relative activity (%) Pantetheine [1, 9]: 29.0 ± 0.6%
- Relative activity (%) Pantothenate [1, 10]: 35.6 ± 5.6%

Molecule: Nc1ncnc2c1ncn2[C@H]1C[C@H](O)[C@@H](COP(=O)(O)OP(=O)(O)OP(=O)(O)O)O1 [dATP]
- Relative activity (%) Pantetheine ([1]; pH 8.4): 8.5 ± 2.7%
- Relative activity (%) Pantothenate ([1]; pH 8.4): 9.0 ± 2.2%

Molecule: CC(C)(CO)C(O)C(=O)NCCCO (stereo not drawn) [panthenol]
- Increase of enzyme activity ([1]; high concentrations of panthenol (e.g., 0.5 mM), regardless of the substrates): up to 40%
- Effect on PfPanK1 activity [1, 7]: did not inhibit PfPanK1 activity
- Effect on PfPanK1 activity ([1]; pantothenate as substrate, 100 μM ATP, pH 8.4, 37°C): did not inhibit PfPanK1 activity

Molecule: Gardimycin
- PfPanK1 Inhibition (%) [2, 8]: 42.5%

Molecule: Gramicidin NF
- PfPanK1 Inhibition (%) [2, 8]: 45.5%

Molecule: Thaimycin
- PfPanK1 Inhibition (%) [2, 8]: 53.9%
